The text below walks through data of patent US12357585B2, “Cannabigerol and pharmaceutical compositions comprising cannabigerol for use in the treatment of insomnia” (AKASHA CORPORATION, priority 2019, dated 2025).

For this assay, the system named is panel members. As to the kind of experiment: Panel-mediated testing of Cannabis accessions with defined cannabinoid profiles (panel N=67, plus anecdotal evidence). The class given is in vivo, human. An excerpt: This method allowed deduction, and therefore, for the first time, the introduction of a new chemotaxonomic classification system merely based on the cannabinoid composition of the plant samples (strains). 15 chemotypes are defined and many more sub-chemotypes are lately added. The samples given to panel members (accessions) contained Cannabis flos, the dried flower tips of the female Cannabis plant. […] All the 45,000 different “strains” were collected and compared to the panel data and data derived from retrospective (meta-) research and anecdotal evidence mainly originated from users, for both recreative and medicinal usage, from the Netherlands. Accession from Spain is included as a parameter and seemed important for the chemotaxonomic scheme for Cannabis species.
The anecdotal evidence is derived from and the panel members are selected from persons, men and women, of the age of 18 till 72 years old. They consumed cannabis joints or vapor having defined cannabinoid profiles, and record the effect during time. Monitoring takes 24 hours, to include data about wear-off problems after night (the next day). The cannabinoids according to the invention may for example be consumed as follows: • 1—Administered as Cannabis simplex per 50 mg unit dose for self-titration. […]

For the compound `CCCCCc1cc(O)c(C/C=C(\C)CCC=C(C)C)c(O)c1` [Cannabigerol], the “sleep attained by subjects” value (all subjects, in high concentration range "narcotic") is listed as “good or very good deep”. In addition, the Effects result (panel session, vapor, joints or tea potion, ad libitum, effects dosage and patient related) was ““indica” or “stoned” effects; drowsiness”.
